Patent publication US10028975B2, “Methods for treating ischemia-reperfusion injury” (Beth Israel Deaconess Medical Center, Inc., priority 2010, dated 2018)

Key:
[1] = biological target: T1, phosphorylated Syk (p-Syk) (Mus musculus, UniProt P48025); assay: p-Syk staining in intestine and lung by IHC and IF; assay type: in vivo; settings: I/R mice group, Syk inhibitor treatment, 3-hour reperfusion
T1 construct: formalin-fixed paraffin sections of intestine and lung were subjected to rehydration and antigen retrieval; from tissue; host or cells: intestine and lung of C57BL/6J mice
T1 sequence (P48025 whole entry, the tested form may be a part): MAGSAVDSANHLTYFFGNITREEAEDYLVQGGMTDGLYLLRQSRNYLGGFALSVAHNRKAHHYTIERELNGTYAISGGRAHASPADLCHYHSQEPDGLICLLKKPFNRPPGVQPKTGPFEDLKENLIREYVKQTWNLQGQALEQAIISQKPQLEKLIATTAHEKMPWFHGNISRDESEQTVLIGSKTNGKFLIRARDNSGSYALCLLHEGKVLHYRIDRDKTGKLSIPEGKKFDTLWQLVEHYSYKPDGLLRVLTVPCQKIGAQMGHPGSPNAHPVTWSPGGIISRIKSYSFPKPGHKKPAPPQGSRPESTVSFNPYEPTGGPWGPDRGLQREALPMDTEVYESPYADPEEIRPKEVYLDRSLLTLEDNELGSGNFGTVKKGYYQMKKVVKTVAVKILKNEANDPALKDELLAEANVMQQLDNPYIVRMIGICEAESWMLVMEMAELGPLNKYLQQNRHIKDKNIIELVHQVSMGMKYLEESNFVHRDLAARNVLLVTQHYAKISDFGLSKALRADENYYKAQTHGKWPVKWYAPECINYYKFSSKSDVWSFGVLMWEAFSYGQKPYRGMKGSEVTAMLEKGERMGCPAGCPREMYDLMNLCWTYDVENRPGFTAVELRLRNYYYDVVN
From the text: (§1) In order to perform immunohistochemistry (IHC) staining, formalin-fixed paraffin sections of intestine and lung were subjected to rehydration and antigen retrieval using a standard protocol. For IHC studies, the following reagents were used: rabbit anti-mouse Syk (N-19) (Santa Cruz, Calif.), rabbit anti-mouse p-Syk (phospho Y323) (Abeam, Inc.), and rabbit anti-mouse C3 (B-9) (Santa Cruz, Calif.).
(§2) For immunofluorescence (IF) staining, formalin-fixed paraffin-embedded sections were blocked with 10% BSA-PBS at room temperature for 1 hour and incubated with FITC-labeled primary or secondary antibodies at room temperature for 1 hour. The slides were washed, and coverslips were mounted with Dako Fluorescent mounting medium and analyzed by confocal microscopy (Nikon Eclipse Ti, Nikon Instruments, Melville, N.Y.). FITC-labeled goat anti-mouse IgG (Santa Cruz, Calif., sc2010), FITC-labeled rat anti-mouse C3 (11H9) (Santa Cruz, Calif., sc-58926), FITC-labeled goat anti-mouse IgM (Southern Biotech, 1021-02), and FITC-labeled rat anti-mouse Ly-6G and LY-6C (Clone R6B-8C5) (BD Pharmingen) were the antibodies used in these studies.
Because the Syk inhibitor suppresses the expression of phosphorylated Syk (p-Syk), the active form of Syk, we performed p-Syk staining by using IHC and IF. We observed staining in I/R group mice. […] After a 3-hour reperfusion, we detected only slight p-Syk staining.

Syk [2] = biological target: T2, Syk (Mus musculus, UniProt P48025); assay: Syk staining in intestine and lung by immunohistochemistry; assay type: in vivo; settings: pre-treatment with Syk inhibitor, IHC
T2 construct: formalin-fixed paraffin sections of intestine and lung were subjected to rehydration and antigen retrieval; from tissue; host or cells: intestine and lung of C57BL/6J mice
T2 sequence (P48025 whole entry): as the sequence (P48025 whole entry, the tested form may be a part) above
Method: as §1
Syk expression in the intestine and lung were evaluated by IHC. Syk staining in intestines and lungs were more prominent in I/R groups than in sham-operated groups.

neutrophil infiltration = assay: Neutrophil infiltration (GR-1 staining) in intestine and lung; assay type: in vivo, mouse
Method: as §2
Therefore, we evaluated the presence of neutrophils in the intestine and lung after sham and I/R procedures in mice treated with Syk inhibitor. Mice subjected to I/R had more prominent GR-1 staining within the intestinal tissue after 3-hour reperfusion when compared to the sham-operated mice group.

[3] = system: C57BL/6J mice subjected to mesenteric I/R (lung); assay: Remote lung injury scoring (H&E) after mesenteric ischemia-reperfusion; assay type: in vivo, mouse; settings: mean±SEM; for total lung injury score: I/R mice, 3 h reperfusion, scale 0-18
From the text: (§3) Mice were randomly assigned to the following experimental groups: (a) mouse chow+sham procedures, (b) mouse chow+I/R procedures, (c) control chow+sham procedures, (d) control chow+I/R procedures, (e) R788 (3 g/kg)+sham procedures, (f) R788 (3 g/kg)+I/R procedures, and (g) R788 (5 g/kg)+I/R procedures […].
(§4) Syk inhibitor R788 was provided by Rigel Pharmaceuticals (South San Francisco, Calif.). Mice were fed food containing R788 (3 g/kg of chow, n=6 or 5 g/kg of chow, n=3), control chow (n=6), or regular chow (n=6). Food was prepared by Research Diets, Inc. (New Brunswick, N.J.). C57BL/6J mice were fed the R788-containing chow ad libitum for 6 days prior to experimentation in order to determine the effect of R788 on I/R injury.
Animals underwent I/R as had been described previously (Chiu et al., Arch Surg. 101: 478-483, 1970 and Fleming et al., J Immunol. 169: 2126-2133, 2002). Briefly, we performed a midline laparotomy before a 30-minute equilibration period. […] The laparotomy incisions were sutured with 4.0 SOFSILK™, the mice resuscitated with 1.0 mL pre-warmed sterile phosphate-buffered saline (PBS) subcutaneously, and monitored during the reperfusion period. […]
Alveolar and periluminal injury scores in each lung section were calculated based on Cooke's method (Cooke et al., Blood 8: 3230-3239, 1996). For each lung section, we examined 10-20 fields at high power field magnification (400×) and scored for alveolar infiltration on a 3-tiered scale. The calculation of alveolar scores was as follows: when no infiltrate was present, a score of 0 was given; when the infiltrate could be visualized easily only at 400×, a score of 1 was assigned; when infiltrates were readily visible, a score of 2 was assigned; and the score for consolidation was 3. Similarly, each section was scored for periluminal damage (airway or blood vessel) at 100×. […] Based on the overall involvement of the section, a severity score was calculated: the severity score for 0-25% involvement was 1; a severity score of 2 was assigned for 25-50% involvement; and the severity score for >50% involvement was 3. […]

[4] = system: complement component 3 protein (C3) deposition; assay: C3 deposition in intestine and lung by IHC and IF; assay type: in vivo, mouse; settings: I/R mice treated with Syk inhibitor
From the text: as §1, §2
It has been reported that I/R activates the complement system, as indicated by C3 deposition on the intestine (Williams et al., supra). […]

[5] = system: C57BL/6J mice subjected to mesenteric I/R (intestine); assay: Intestinal mucosal injury scoring (H&E) after mesenteric ischemia-reperfusion; assay type: in vivo, mouse; settings: mean±SEM; for intestinal injury score (mucosal injury score): I/R mice, 30 min ischemia, 3 h reperfusion, scale 0-6
From the text: as §3, §4
Animals underwent I/R as had been described previously (Chiu et al., Arch Surg. 101: 478-483, 1970 and Fleming et al., J Immunol. 169: 2126-2133, 2002). Briefly, we performed a midline laparotomy before a 30-minute equilibration period. […] A small non-traumatic microvascular clip delivering approximately 85 grams of pressure was then applied for 30 minutes. The clip was removed after this ischemia phase, and the intestines were allowed to reperfuse for 3 hours. Sham-operated mice underwent the above-described surgical intervention without artery occlusion. The laparotomy incisions were sutured with 4.0 SOFSILK™, the mice resuscitated with 1.0 mL pre-warmed sterile phosphate-buffered saline (PBS) subcutaneously, and monitored during the reperfusion period. […]
For histological analysis, 20-cm segments of small intestine specimens were fixed in 10% buffered formalin phosphate immediately after euthanasia. […] To summarize, a normal villus was assigned a score of 0; villi with tip distortion were scored as 1; villi without goblet cells and with Guggenheims' spaces were scored as 2; villi with patchy disruption of the epithelial cells were scored as 3; villi with exposed but intact lamina propria and sloughing of epithelial cell were scored as 4; villi with exuding lamina propria were scored as 5; and villi with hemorrhage or denudation were scored as 6. […]

IgM deposition = assay: IgM staining in intestine and lung by immunofluorescence; assay type: in vivo, mouse; settings: I/R intestinal and lung samples, both tissues
Method: as §2
Reperfusion after ischemia induced alteration of the endothelial membrane and allows neoantigen expression. Circulating natural IgM antibodies bind to these antigens and may trigger complement-mediated injury (Williams et al., J Applied Physiol. 86: 938-942, 1999). Therefore, we performed IgM staining by IF, as described above. There was increased IgM staining in I/R intestinal and lung samples when compared to the sham tissues. […] Unlike the differences detected for natural IgM staining, we were only able to detect minimal IgG staining in all groups (data not shown).

Syk [6] = assay: Syk expression by Western blot in T cells transfected with Syk siRNA; assay type: cell-based; settings: T cells electroporated with siRNA at 0.5, 0.7, 0.9, 1.5 and 2 μM per million, approximately 72 hours
Method: Different concentrations (0.5, 0.7, 0.9, 1.5, and 2 μM per million) of T cells were transfected by electroporation using Amexa Nucleofector solution. Briefly, a total of 5×10^6 T cells were re-suspended in 100 μl Nucleofector solution (Lonza Walkerrsville Inc.; Walkersville, Md.). The desired amount of Syk siRNA was mixed in with the T cell/nucleofector suspension and electrporated. The transfected cells were plated in RPMI-1640 medium without any antibiotic and incubated for approximately 72 hours. After proper incubation, transfected T cells were lysed in RIPA buffer, and Western blotting was performed with an antibody against total Syk (Clone 4D10; Santa Cruz Biotechnology, Inc.; Santa Cruz, Calif.).

[7] = sham-operated mice, Syk inhibitor (R788 3 g/kg chow)

Molecule: COc1cc(Nc2ncc(F)c(Nc3ccc4c(n3)N(COP(=O)(O)O)C(=O)C(C)(C)O4)n2)cc(OC)c1OC [R788]
- p-Syk staining in the lung and intestine [1]: eliminated p-Syk staining
- Syk staining in either the intestine or the lung (Syk [2]): did not cause any changes
- I/R-induced neutrophil infiltration (GR-1 staining) (neutrophil infiltration; intestinal tissue, 3-hour reperfusion): prevented I/R-induced neutrophil infiltration
- neutrophil infiltration in the lung tissues (neutrophil infiltration; lung tissue, I/R mice): decreased infiltration
- total lung injury score ([3]; 3 g/kg R788 in chow for 6 days): 1.36±0.18
- total lung injury score ([3]; 5 g/kg R788 in chow for 6 days): 1.1±0.46
- average pulmonary damage score [3, 7]: 1.03±0.26
- C3 staining in the intestinal mucosa ([4]; intestine): attenuated C3 staining
- C3 deposition in the lungs ([4]; lung): limited C3 deposition
- intestinal injury score (mucosal injury score) ([5]; 3 g/kg R788 in chow for 6 days): 0.58±0.08
- intestinal injury score (mucosal injury score) ([5]; 5 g/kg R788 in chow for 6 days): 0.92±0.14
- intestinal injury score [5, 7]: 0.42±+0.33
- IgM deposition (immunofluorescence staining) (IgM deposition): reduced IgM deposition

Molecule: SEQ ID NOs: 1 and 2: Syk-specific siRNA pair: sense GGAUAAGAACAUCAUAGAAtt, antisense UUCUAUGAUGUUCUUAUCCtt (sense GGAUAAGAACAUCAUAGAATT; antisense UUCUAUGAUGUUCUUAUCCTT; chemistry not given here)
- Syk expression (Western blot) (Syk [6]): can be inhibited

Molecule: SEQ ID NOs: 3 and 4: Syk-specific siRNA pair: sense CGCUCUUAAAGAUGAGUUAtt, antisense UAACUCAUCUUUAAGAGCGgg (sense CGCUCUUAAAGAUGAGUUATT; antisense UAACUCAUCUUUAAGAGCGGG; chemistry not given here)
- Syk expression (Western blot) (Syk [6]): can be inhibited

Molecule: SEQ ID NOs: 5 and 6: Syk-specific siRNA pair: sense GCACUAUCGCAUCGACAAAtt, antisense UUUGUCGAUGCGAUAGUGCag (sense GCACUAUCGCAUCGACAAATT; antisense UUUGUCGAUGCGAUAGUGCAG; chemistry not given here)
- Syk expression (Western blot) (Syk [6]): can be inhibited
